Source: patent publication US20080064040A1, “Monitoring gene silencing and annotating gene function in living cells” (Odyssey Thera, Inc., priority 2003, published 2008)

Tested on: phosphorylation of the ERK1 and ERK2 protein kinases
Experiment: Phospho-ERK (T202/Tyr204) immunofluorescence in EGF-treated HEK 293T cells
Format: cell-based, human
Details: EGF vs unstimulated cells, FIG. 11B
Procedure: Cells are transfected with a collection of siRNAs, and cultured for 48 hours before fixing. Fixed cells are probed with antibodies that specifically recognize the MAPK/ERK protein kinases only when they are phosphorylated on Threonine 202 and Tyrosine 204 in the activation loop. […] Changes in the level and sub-cellular localization of phosphorylated proteins following treatment with an annotation reagent (here siRNA) indicates a functional connection between the annotation reagent and the target of interest. […] Here, 24 individual siRNA pools were transfected into human HEK cells, and their effects on the phosphorylation of the ERK1 and ERK2 protein kinases was assessed by immunofluorescence analysis.
Human HEK 293T cells were plated at 12,000 cells/well, and transfected with 40 ng of siRNA pools targeting the indicated proteins using Lipofectamine 2000 (Invitrogen, Carlsbad Calif.). 24 hours after transfection, cells were cultured in 0.25% serum for 24 hours, then treated with EGF (Sigma; 100 ng/ml) for 5 minutes prior to fixation. For immunofluorescence, cells were rinsed with PBS, fixed with 4% formaldehyde in PBS, and permeabilized using 0.25% Triton X-100. Non-specific immunoreactivity was blocked by incubating cells with 3% BSA in PBS. […] Automated fluorescence image acquisition was carried out using Discovery-1 (Universal Imaging/Molecular Devices).

EGF: epidermal growth factor (Sigma), stimulus for ERK phosphorylation (NSDSECPLSHDGYCLHDGVCMYIEALDKYACNCVVGYIGERCQYRDLKWWELR; UniProt P01133 971-1023, looked up)
level of phosphorylated ERK after growth factor treatment: large increase in phosphorylated ERK
